In patent publication US12492173B2, “Herbicidal substituted N-tetrazolyl aryl carboxamides” (Bayer Aktiengesellschaft, priority 2019, dated 2025):

How the values were obtained:
Type in all cases: in vivo
Abutilon theophrasti = experiment: Post-emergence herbicidal action, ABUTH; parameters: key: % herbicidal action vs untreated; 100 = plants died, 0 = like control
Outline: (§1)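 Visual % damage versus untreated plants, scored about 3 weeks post-spray (100% = dead, 0% = like control). Greenhouse plants in sandy loam were treated at one-leaf stage with WP/EC formulations in water at 600 to 800 l/ha plus 0.2% wetting agent.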

Viola tricolor [1] = experiment: Pre-emergence herbicidal action, VIOTR; conditions: dosage 320 g/ha
Outline: (§2)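 Weed seeds sown in sandy loam and covered; WP or EC formulations applied to soil surface as aqueous suspension or emulsion at 600 to 800 l/ha with 0.2% wetting agent. Greenhouse-grown, with damage scored visually after 3 weeks versus untreated controls (0% = like control, 100% = plants dead).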

Amaranthus retroflexus [2] = experiment: Pre-emergence herbicidal action, AMARE; parameters: key to Herbicidal action against AMARE: % activity: 100 = plants have died, 0 = like control plants; conditions: for herbicidal action AMARE: dosage 320 g/ha
Outline: as §2

Echinochloa crus-galli [3] = experiment: Pre-emergence herbicidal action, ECHCG; conditions: for herbicidal action ECHCG: dosage 320 g/ha
Outline: as §2

Amaranthus retroflexus [4] = experiment: Post-emergence herbicidal action, AMARE; parameters: key: % herbicidal action vs untreated; 100 = plants died, 0 = like control; conditions: for Herbicidal action against AMARE: post-emergence, dosage 80 g/ha
Outline: as §1

Polygonum convolvulus [5] = experiment: Post-emergence herbicidal action, POLCO; conditions: for Herbicidal action against POLCO: post-emergence, dosage 80 g/ha
Description: (§3) [table] 2. Post-Emergence Herbicidal Action Against Harmful Plants Seeds of monocotyledonous and dicotyledonous weed and crop plants are laid out in sandy loam soil in wood-fiber pots, covered with soil and cultivated in a greenhouse under good growth conditions. 2 to 3 weeks after sowing, the test plants are treated at the one-leaf stage. The compounds of the invention, formulated in the form of wettable powders (WP) or as emulsion concentrates (EC), are then sprayed onto the green parts of the plants in the form of an aqueous suspension or emulsion at a water application rate equating to 600 to 800 l/ha, with addition of 0.2% wetting agent. After the test plants have been left to stand in the greenhouse under optimal growth conditions for about 3 weeks, the action of the preparations is assessed visually in comparison to untreated controls (herbicidal action in percent (%): 100% activity=the plants have died, 0% activity=like control plants). […] The tables below illustrate, in an exemplary manner, the post-emergence herbicidal action of the compounds according to the invention, the herbicidal activity being stated in percent. In the experiments that follow, herbicidal action of numerous inventive compounds and the known compounds that are structurally closest from D1 (WO 2012/028579 A1) and D2 (WO 2018/202535 A1) were compared under the above-specified conditions by the pre-emergence and post-emergence method. The example numbers given in the tables relate to the compounds disclosed in the respective documents. In addition to the compounds disclosed in D1 and D2, the following compounds V-1 to V-14 that are encompassed by D1 or D2 but are not compounds specified therein were used in the comparative experiments: • V-1: 2-(methylsulfanyl)-3-(methylsulfinyl)-N-(1-methyl-1H-tetrazol-5-yl)-4-(trifluoromethyl)benzamide • V-2: 2-(methylsulfanyl)-3-(methylsulfonyl)-N-(1-methyl-1H-tetrazol-5-yl)-4-(trifluoromethyl)benzamide • V-3: 2,3-bis(ethylsulfanyl)-N-(1-methyl-1H-tetrazol-5-yl)-4-(trifluoromethyl)benzamide • V-4: 2-chloro-3-(ethylsulfanyl)-N-(1-methyl-1H-tetrazol-5-yl)-4-(trifluoromethyl)benzamide • V-5: 2-chloro-4-iodo-3-(methylsulfanyl)-N-(1-methyl-1H-tetrazol-5-yl)benzamide • V-6: 2-chloro-4-iodo-3-(methylsulfinyl)-N-(1-methyl-1H-tetrazol-5-yl)benzamide • V-7: 2-chloro-4-iodo-3-(methylsulfonyl)-N-(1-methyl-1H-tetrazol-5-yl)benzamide • V-8: 2-bromo-3-(methylsulfanyl)-N-(1-methyl-1H-tetrazol-5-yl)-4-(trifluoromethyl)benzamide • V-9: 2-bromo-3-(methylsulfinyl)-N-(1-methyl-1H-tetrazol-5-yl)-4-(trifluoromethyl)benzamide • V-10: 2-bromo-3-(methylsulfonyl)-N-(1-methyl-1H-tetrazol-5-yl)-4-(trifluoromethyl)benzamide • V-11: 2-bromo-3-(ethylsulfanyl)-N-(1-methyl-1H-tetrazol-5-yl)-4-(trifluoromethyl)benzamide • V-12: 2-bromo-3-(ethylsulfinyl)-N-(1-methyl-1H-tetrazol-5-yl)-4-(trifluoromethyl)benzamide • V-13: 2-bromo-3-(ethylsulfonyl)-N-(1-methyl-1-1H-tetrazol-5-yl)-4-(trifluoromethyl)benzamide • V-14: 2-cyclopropyl-3-(ethylsulfanyl)-N-(1-methyl-1H-tetrazol-5-yl)-4-(trifluoromethyl)benzamide Herbicidal Pre-Emergence Action: […]

Stellaria media [6] = experiment: Post-emergence herbicidal action, STEME; parameters: key: % herbicidal action vs untreated; 100 = plants died, 0 = like control; conditions: for Herbicidal action against STEME: post-emergence, dosage 80 g/ha
Outline: as §1

Polygonum convolvulus [7] = experiment: Pre-emergence herbicidal action, POLCO; conditions: for herbicidal action POLCO: dosage 320 g/ha
From the text: (§4) 1. Pre-Emergence Herbicidal Action Against Harmful Plants Seeds of monocotyledonous and dicotyledonous weed plants and crop plants are laid out in sandy loam soil in wood-fiber pots and covered with soil. The compounds of the invention, formulated in the form of wettable powders (WP) or as emulsion concentrates (EC), are then applied to the surface of the covering soil in the form of an aqueous suspension or emulsion at a water application rate equating to 600 to 800 l/ha, with addition of 0.2% wetting agent. After the treatment, the pots are placed in a greenhouse and kept under good growth conditions for the trial plants. The damage to the test plants is scored visually after a test period of 3 weeks by comparison with untreated controls (herbicidal activity in percent (%): 100% activity=the plants have died, 0% activity=like control plants). […] The tables below illustrate, in an exemplary manner, the […] herbicidal action of the compounds according to the invention, the herbicidal activity being stated in percent. [table] In the experiments that follow, herbicidal action of numerous inventive compounds and the known compounds that are structurally closest from D1 (WO 2012/028579 A1) and D2 (WO 2018/202535 A1) were compared under the above-specified conditions by the pre-emergence and post-emergence method. The example numbers given in the tables relate to the compounds disclosed in the respective documents. In addition to the compounds disclosed in D1 and D2, the following compounds V-1 to V-14 that are encompassed by D1 or D2 but are not compounds specified therein were used in the comparative experiments: • V-1: 2-(methylsulfanyl)-3-(methylsulfinyl)-N-(1-methyl-1H-tetrazol-5-yl)-4-(trifluoromethyl)benzamide • V-2: 2-(methylsulfanyl)-3-(methylsulfonyl)-N-(1-methyl-1H-tetrazol-5-yl)-4-(trifluoromethyl)benzamide • V-3: 2,3-bis(ethylsulfanyl)-N-(1-methyl-1H-tetrazol-5-yl)-4-(trifluoromethyl)benzamide • V-4: 2-chloro-3-(ethylsulfanyl)-N-(1-methyl-1H-tetrazol-5-yl)-4-(trifluoromethyl)benzamide • V-5: 2-chloro-4-iodo-3-(methylsulfanyl)-N-(1-methyl-1H-tetrazol-5-yl)benzamide • V-6: 2-chloro-4-iodo-3-(methylsulfinyl)-N-(1-methyl-1H-tetrazol-5-yl)benzamide • V-7: 2-chloro-4-iodo-3-(methylsulfonyl)-N-(1-methyl-1H-tetrazol-5-yl)benzamide • V-8: 2-bromo-3-(methylsulfanyl)-N-(1-methyl-1H-tetrazol-5-yl)-4-(trifluoromethyl)benzamide • V-9: 2-bromo-3-(methylsulfinyl)-N-(1-methyl-1H-tetrazol-5-yl)-4-(trifluoromethyl)benzamide • V-10: 2-bromo-3-(methylsulfonyl)-N-(1-methyl-1H-tetrazol-5-yl)-4-(trifluoromethyl)benzamide • V-11: 2-bromo-3-(ethylsulfanyl)-N-(1-methyl-1H-tetrazol-5-yl)-4-(trifluoromethyl)benzamide • V-12: 2-bromo-3-(ethylsulfinyl)-N-(1-methyl-1H-tetrazol-5-yl)-4-(trifluoromethyl)benzamide • V-13: 2-bromo-3-(ethylsulfonyl)-N-(1-methyl-1-1H-tetrazol-5-yl)-4-(trifluoromethyl)benzamide • V-14: 2-cyclopropyl-3-(ethylsulfanyl)-N-(1-methyl-1H-tetrazol-5-yl)-4-(trifluoromethyl)benzamide Herbicidal Pre-Emergence Action: […]

Viola tricolor [8] = experiment: Post-emergence herbicidal action, VIOTR; parameters: key: % herbicidal action vs untreated; 100 = plants died, 0 = like control; conditions: for Herbicidal action against VIOTR: post-emergence, dosage 80 g/ha
Outline: as §1

Pharbitis purpurea [9] = experiment: Post-emergence herbicidal action, PHBPU; conditions: for Herbicidal action against PHBPU: post-emergence, dosage 80 g/ha
Outline: as §1

Echinochloa crus-galli [10] = experiment: Post-emergence herbicidal action, ECHCG; parameters: key: % herbicidal action vs untreated; 100 = plants died, 0 = like control; conditions: for Herbicidal action against ECHCG: post-emergence, dosage 80 g/ha
Outline: as §1

Veronica persica [11] = experiment: Pre-emergence herbicidal action, VERPE; parameters: key to Herbicidal action against VERPE: % activity: 100 = plants have died, 0 = like control plants; conditions: for herbicidal action VERPE: dosage 320 g/ha
Outline: as §2

Matricaria inodora [12] = experiment: Pre-emergence herbicidal action, MATIN; conditions: dosage 320 g/ha
Outline: as §2

Stellaria media [13] = experiment: Pre-emergence herbicidal action, STEME; parameters: key to Herbicidal action against STEME: % activity: 100 = plants have died, 0 = like control plants; conditions: for herbicidal action STEME: dosage 320 g/ha
From the text: as §4

Veronica persica [14] = experiment: Post-emergence herbicidal action, VERPE; parameters: key: % herbicidal action vs untreated; 100 = plants died, 0 = like control; conditions: for Herbicidal action against VERPE: post-emergence, dosage 80 g/ha
Outline: as §1

Matricaria inodora [15] = experiment: Post-emergence herbicidal action, MATIN; parameters: key: % herbicidal action vs untreated; 100 = plants died, 0 = like control
Outline: as §1

Setaria viridis [16] = experiment: Post-emergence herbicidal action, SETVI; parameters: key: % herbicidal action vs untreated; 100 = plants died, 0 = like control
Outline: as §1

Setaria viridis [17] = experiment: Pre-emergence herbicidal action, SETVI; parameters: key to Herbicidal action against SETVI: % activity: 100 = plants have died, 0 = like control plants
From the text: as §4

Alopecurus myosuroides = experiment: Post-emergence herbicidal action, ALOMY; parameters: key: % herbicidal action vs untreated; 100 = plants died, 0 = like control; conditions: Dosage 80 g/ha
Description: as §3

Pharbitis purpurea [18] = experiment: Pre-emergence herbicidal action, PHBPU; conditions: comparative experiment, 20 g of a.i./ha
From the text: as §4

[19] = comparative experiment, 20 g of a.i./ha

Compound	herbicidal action AMARE (Amaranthus retroflexus [2])	herbicidal action ECHCG (Echinochloa crus-galli [3])	Herbicidal action against AMARE (Amaranthus retroflexus [4])	Herbicidal action against POLCO (Polygonum convolvulus [5])	Herbicidal action against STEME (Stellaria media [6])	herbicidal action POLCO (Polygonum convolvulus [7])	Herbicidal action against VIOTR (Viola tricolor [8])	Herbicidal action against PHBPU (Pharbitis purpurea [9])	Herbicidal action against ECHCG (Echinochloa crus-galli [10])	herbicidal action VERPE (Veronica persica [11])	herbicidal action MATIN (Matricaria inodora [12])	herbicidal action STEME (Stellaria media [13])	Herbicidal action against VERPE (Veronica persica [14])	further results
CCS(=O)(=O)Cc1c(C(F)F)ccc(C(=O)Nc2nnnn2C)c1S(=O)(=O)CC [Example 1-229]	100%	100%	80	80	100	100%	90	80	90	100%	90%	100%	90	Herbicidal action against ABUTH (Abutilon theophrasti; post-emergence, dosage 80 g/ha): 100; herbicidal action VIOTR (Viola tricolor [1]): 100%
CCn1nnnc1NC(=O)c1ccc(C)c(CS(C)(=O)=O)c1Cl [Example 2-289]	100%	100%	100	80	100	80%	80	90	100	90%	100%	90%	90	Herbicidal action against MATIN (Matricaria inodora [15]; post-emergence, dosage 80 g/ha): 100; Herbicidal action against SETVI (Setaria viridis [16]; post-emergence, dosage 80 g/ha): 100; herbicidal action SETVI (Setaria viridis [17]; dosage 320 g/ha): 100%
Cn1nnnc1NC(=O)c1ccc(I)c(S(C)(=O)=O)c1Cl [Example V-7, 2-chloro-4-iodo-3-(methylsulfonyl)-N-(1-methyl-1H-tetrazol-5-yl)benzamide, reference compound]														Herbicidal action against AMARE (Amaranthus retroflexus [2]; [19]): 30; pest or weed control at 20 g/ha (Echinochloa crus-galli [3]; Echinochloa crus-galli, 504 h, comparative experiment, 20 g of a.i./ha, read-out: Herbicidal action against ECHCG): 10%; Herbicidal action against POLCO (Polygonum convolvulus [7]; [19]): 0; Herbicidal action against VERPE (Veronica persica [11]; [19]): 40; Herbicidal action against STEME (Stellaria media [13]; [19]): 0; Herbicidal action against SETVI (Setaria viridis [17]; [19]): 0
CCn1nnnc1NC(=O)c1ccc(C)c(C[S+](C)[O-])c1Cl (stereo not drawn) [Example 2-288]	100%	100%								100%	90%	90%		herbicidal action ABUTH (Abutilon theophrasti; Dosage 80 g/ha): 90; herbicidal action AMARE (Amaranthus retroflexus [4]; Dosage 80 g/ha): 100; herbicidal action MATIN (Matricaria inodora [15]; Dosage 80 g/ha): 90; herbicidal action POLCO (Polygonum convolvulus [5]; Dosage 80 g/ha): 90; herbicidal action STEME (Stellaria media [6]; Dosage 80 g/ha): 100; herbicidal action ALOMY (Alopecurus myosuroides): 80; herbicidal action VIOTR (Viola tricolor [8]; Dosage 80 g/ha): 80; herbicidal action PHBPU (Pharbitis purpurea [9]; Dosage 80 g/ha): 90; herbicidal action ECHCG (Echinochloa crus-galli [10]; Dosage 80 g/ha): 90; herbicidal action SETVI (Setaria viridis [16]; Dosage 80 g/ha): 90; herbicidal action VERPE (Veronica persica [14]; Dosage 80 g/ha): 100
CCSCc1c(C(F)(F)F)ccc(C(=O)Nc2nnnn2C)c1C1CC1 [Example 1-517]														Herbicidal action against PHBPU (Pharbitis purpurea [18]): 60
